From PubChem BioAssay (NCI)
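Growth conditions: 96-well plates. Treatment: test compound, 48 hours, 5 concentrations. Analysis: linear interpolation between bracketing concentrations; unreached endpoints set to highest concentration. TGI: total growth inhibition.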

How the values were obtained:
Assay in all cases: growth of human tumour cells (NCI), 48 h
MALME-3M melanoma = test system: MALME-3M melanoma
RPMI-8226 leukemia = test system: RPMI-8226 leukemia
SK-MEL-28 melanoma = test system: SK-MEL-28 melanoma
NCI-H522 lung = test system: NCI-H522 lung
OVCAR-8 ovarian = test system: OVCAR-8 ovarian
DU-145 prostate = test system: DU-145 prostate
KM20L2 colon = test system: KM20L2 colon
MDA-MB-435 = test system: MDA-MB-435
786-0 renal = test system: 786-0 renal
SF-539 CNS = test system: SF-539 CNS
NCI-H23 lung = test system: NCI-H23 lung
DLD-1 colon = test system: DLD-1 colon
OVCAR-4 ovarian = test system: OVCAR-4 ovarian
CAKI-1 renal = test system: CAKI-1 renal
UACC-257 melanoma = test system: UACC-257 melanoma
SF-268 CNS = test system: SF-268 CNS
M19-MEL melanoma = test system: M19-MEL melanoma
RXF 393 renal = test system: RXF 393 renal
TK-10 renal = test system: TK-10 renal
U251 CNS = test system: U251 CNS
NCI-H226 lung = test system: NCI-H226 lung
HCT-116 colon = test system: HCT-116 colon
SK-OV-3 ovarian = test system: SK-OV-3 ovarian
OVCAR-3 ovarian = test system: OVCAR-3 ovarian
M14 melanoma = test system: M14 melanoma
HCC-2998 colon = test system: HCC-2998 colon
HL-60(TB) leukemia = test system: HL-60(TB) leukemia
IGROV1 ovarian = test system: IGROV1 ovarian
NCI-H460 lung = test system: NCI-H460 lung
SR leukemia = test system: SR leukemia
NCI/ADR-RES ovarian = test system: NCI/ADR-RES ovarian
CCRF-CEM leukemia = test system: CCRF-CEM leukemia
SW-620 colon = test system: SW-620 colon
SNB-78 CNS = test system: SNB-78 CNS
SN12C renal = test system: SN12C renal
LXFL 529 NSCLC = test system: LXFL 529 NSCLC
OVCAR-5 ovarian = test system: OVCAR-5 ovarian
LOX IMVI melanoma = test system: LOX IMVI melanoma
EKVX NSCLC = test system: EKVX NSCLC
MCF7 breast = test system: MCF7 breast
HCT-15 colon = test system: HCT-15 colon
SNB-19 CNS = test system: SNB-19 CNS
HOP-92 NSCLC = test system: HOP-92 NSCLC
KM12 colon = test system: KM12 colon
PC-3 prostate = test system: PC-3 prostate
ACHN renal = test system: ACHN renal
HS 578T breast = test system: HS 578T breast
K-562 leukemia = test system: K-562 leukemia
SNB-75 CNS = test system: SNB-75 CNS
DMS 114 small cell lung = test system: DMS 114 small cell lung
HT29 colon = test system: HT29 colon
HOP-18 NSCLC = test system: HOP-18 NSCLC
UO-31 renal = test system: UO-31 renal
SF-295 CNS = test system: SF-295 CNS
T-47D breast = test system: T-47D breast
SK-MEL-5 melanoma = test system: SK-MEL-5 melanoma
MDA-N = test system: MDA-N
MOLT-4 leukemia = test system: MOLT-4 leukemia
DMS 273 small cell lung = test system: DMS 273 small cell lung
A498 renal = test system: A498 renal
UACC-62 melanoma = test system: UACC-62 melanoma
XF 498 CNS = test system: XF 498 CNS
COLO 205 colon = test system: COLO 205 colon
MDA-MB-231 breast = test system: MDA-MB-231 breast
A549 NSCLC = test system: A549 NSCLC
SK-MEL-2 melanoma = test system: SK-MEL-2 melanoma
HOP-62 NSCLC = test system: HOP-62 NSCLC
RXF-631 renal = test system: RXF-631 renal

COc1ccc(OC)c2c1C(=O)C(Cl)=C(Cl)C2=O
TGI (MALME-3M melanoma): 4.46 µM | TGI (RPMI-8226 leukemia): > 27.6 µM | TGI (SK-MEL-28 melanoma): 12.8 µM | TGI (NCI-H522 lung): 4.68 µM | TGI (OVCAR-8 ovarian): 18.3 µM | TGI (DU-145 prostate): 37.6 µM | TGI (KM20L2 colon): 22.3 µM | TGI (MDA-MB-435): 5.88 µM | TGI (786-0 renal): 10.5 µM | TGI (SF-539 CNS): 11.6 µM | TGI (NCI-H23 lung): 19.2 µM | TGI (DLD-1 colon): 11.8 µM | TGI (OVCAR-4 ovarian): 13 µM | TGI (CAKI-1 renal): 7.99 µM | TGI (UACC-257 melanoma): 4.68 µM | TGI (SF-268 CNS): 27 µM | TGI (M19-MEL melanoma): 16.2 µM | TGI (RXF 393 renal): 3.65 µM | TGI (TK-10 renal): 9.83 µM | TGI (U251 CNS): 38.9 µM | TGI (NCI-H226 lung): 42.2 µM | TGI (HCT-116 colon): 3.86 µM | TGI (SK-OV-3 ovarian): 67.4 µM | TGI (OVCAR-3 ovarian): 7.85 µM | TGI (M14 melanoma): 6.46 µM | TGI (HCC-2998 colon): 31.2 µM | TGI (HL-60(TB) leukemia): > 100 µM | TGI (IGROV1 ovarian): 31.1 µM | TGI (NCI-H460 lung): 44.3 µM | TGI (SR leukemia): > 88 µM | TGI (NCI/ADR-RES ovarian): 5.74 µM | TGI (CCRF-CEM leukemia): > 100 µM | TGI (SW-620 colon): 3.6 µM | TGI (SNB-78 CNS): 15.8 µM | TGI (SN12C renal): 23.1 µM | TGI (LXFL 529 NSCLC): 4.74 µM | TGI (OVCAR-5 ovarian): 29.6 µM | TGI (LOX IMVI melanoma): 5.18 µM | TGI (EKVX NSCLC): 21.9 µM | TGI (MCF7 breast): 10.4 µM | TGI (HCT-15 colon): 10.7 µM | TGI (SNB-19 CNS): > 77.4 µM | TGI (HOP-92 NSCLC): 8.14 µM | TGI (KM12 colon): 33.8 µM | TGI (PC-3 prostate): 27.6 µM | TGI (ACHN renal): 10.9 µM | TGI (HS 578T breast): 6.06 µM | TGI (K-562 leukemia): > 100 µM | TGI (SNB-75 CNS): 29.1 µM | TGI (DMS 114 small cell lung): 4.76 µM | TGI (HT29 colon): 15.5 µM | TGI (HOP-18 NSCLC): 12.4 µM | TGI (UO-31 renal): 6.66 µM | TGI (SF-295 CNS): 38.6 µM | TGI (T-47D breast): 8.09 µM | TGI (SK-MEL-5 melanoma): 14.1 µM | TGI (MDA-N): 4.19 µM | TGI (MOLT-4 leukemia): 8.87 µM | TGI (DMS 273 small cell lung): 20.1 µM | TGI (A498 renal): 41.6 µM | TGI (UACC-62 melanoma): 6.9 µM | TGI (XF 498 CNS): 3.67 µM | TGI (COLO 205 colon): 3.21 µM | TGI (MDA-MB-231 breast): 6.57 µM | TGI (A549 NSCLC): 56.4 µM | TGI (SK-MEL-2 melanoma): 8.73 µM

COC(=O)/C1=C/C2CC(/C=C(/c3ccccc3)C(=O)O1)C2
TGI (MALME-3M melanoma): 54.2 µM | TGI (RPMI-8226 leukemia): 64.7 µM | TGI (SK-MEL-28 melanoma): 66.4 µM | TGI (NCI-H522 lung): 37.9 µM | TGI (OVCAR-8 ovarian): 80.6 µM | TGI (786-0 renal): 89.1 µM | TGI (SF-539 CNS): 89.8 µM | TGI (NCI-H23 lung): 38.4 µM | TGI (DLD-1 colon): > 100 µM | TGI (UACC-257 melanoma): 23.2 µM | TGI (M19-MEL melanoma): > 100 µM | TGI (RXF 393 renal): 78 µM | TGI (TK-10 renal): > 100 µM | TGI (U251 CNS): 49.3 µM | TGI (NCI-H226 lung): 44.7 µM | TGI (HCT-116 colon): 56.6 µM | TGI (SK-OV-3 ovarian): 72.9 µM | TGI (OVCAR-3 ovarian): > 100 µM | TGI (M14 melanoma): > 100 µM | TGI (HL-60(TB) leukemia): 60.6 µM | TGI (IGROV1 ovarian): > 100 µM | TGI (NCI-H460 lung): > 100 µM | TGI (CCRF-CEM leukemia): 70.5 µM | TGI (SW-620 colon): > 100 µM | TGI (SN12C renal): 64.3 µM | TGI (HOP-62 NSCLC): 95 µM | TGI (LOX IMVI melanoma): 40.3 µM | TGI (EKVX NSCLC): > 100 µM | TGI (HCT-15 colon): 53.1 µM | TGI (SNB-19 CNS): > 100 µM | TGI (KM12 colon): 62 µM | TGI (ACHN renal): 96.5 µM | TGI (K-562 leukemia): 96.1 µM | TGI (SNB-75 CNS): 35.4 µM | TGI (DMS 114 small cell lung): 55.8 µM | TGI (HT29 colon): 65.4 µM | TGI (HOP-18 NSCLC): > 100 µM | TGI (UO-31 renal): > 100 µM | TGI (SF-295 CNS): > 100 µM | TGI (SK-MEL-5 melanoma): 47 µM | TGI (MOLT-4 leukemia): 62 µM | TGI (DMS 273 small cell lung): 53 µM | TGI (UACC-62 melanoma): 67.4 µM | TGI (XF 498 CNS): 45.2 µM | TGI (COLO 205 colon): 41.7 µM | TGI (A549 NSCLC): > 100 µM

COc1ccc2c(CCNS(=O)(=O)c3ccccc3)c(C(C)=O)[nH]c2c1[N+](=O)[O-]
TGI (RPMI-8226 leukemia): > 100 µM | TGI (NCI-H522 lung): > 100 µM | TGI (OVCAR-8 ovarian): > 100 µM | TGI (KM20L2 colon): > 100 µM | TGI (786-0 renal): > 100 µM | TGI (SF-539 CNS): 77.7 µM | TGI (NCI-H23 lung): > 100 µM | TGI (OVCAR-4 ovarian): > 100 µM | TGI (UACC-257 melanoma): > 100 µM | TGI (SF-268 CNS): > 100 µM | TGI (U251 CNS): > 100 µM | TGI (NCI-H226 lung): > 100 µM | TGI (HCT-116 colon): > 100 µM | TGI (OVCAR-3 ovarian): > 100 µM | TGI (M14 melanoma): > 100 µM | TGI (HCC-2998 colon): > 100 µM | TGI (HL-60(TB) leukemia): > 100 µM | TGI (IGROV1 ovarian): > 100 µM | TGI (NCI-H460 lung): > 100 µM | TGI (SR leukemia): > 100 µM | TGI (CCRF-CEM leukemia): > 100 µM | TGI (SW-620 colon): > 100 µM | TGI (SNB-78 CNS): > 100 µM | TGI (SN12C renal): > 100 µM | TGI (LXFL 529 NSCLC): > 100 µM | TGI (OVCAR-5 ovarian): > 100 µM | TGI (HOP-62 NSCLC): > 100 µM | TGI (LOX IMVI melanoma): > 100 µM | TGI (HCT-15 colon): > 100 µM | TGI (SNB-19 CNS): > 100 µM | TGI (KM12 colon): > 100 µM | TGI (ACHN renal): > 100 µM | TGI (K-562 leukemia): > 100 µM | TGI (HT29 colon): > 100 µM | TGI (UO-31 renal): > 100 µM | TGI (SF-295 CNS): > 100 µM | TGI (RXF-631 renal): > 100 µM | TGI (MOLT-4 leukemia): > 100 µM | TGI (DMS 273 small cell lung): > 100 µM | TGI (A498 renal): > 100 µM | TGI (UACC-62 melanoma): > 100 µM | TGI (COLO 205 colon): > 100 µM | TGI (A549 NSCLC): > 100 µM | TGI (SK-MEL-2 melanoma): > 100 µM
